{"source": "patent US20230330093A1", "about": "“APPLICATION OF NITROGEN-CONTAINING SATURATED HETEROCYCLIC COMPOUND” (SHANGHAI PHARMACEUTICALS HOLDING CO., LTD., priority 2020, published 2023)", "format_in_all_cases": "in vivo, Macaca mulatta (Rhesus Macaque)", "key": {"[1]": {"tested_on": "rhesus monkeys with spontaneous chronic kidney disease", "assay": "Effect on glomerular filtration rate eGFRcreat-cys, 8-week administration", "conditions": "for eGFRcreat-cy, Change value: 5 mg/kg oral once a day", "experimental": "CKD-EPI rating […]-G3b, glomerular filtration rate eGFR: 30 59 ml/min/1.73 m^2; or moderate to severe increase in proteinuria (A2-A3): urine albumin/creatinine ratio (UACR)>15 mg/g-350 mg/g (4-6 hour urine collection), vs. age-matched control group 3±2 mg/g. In the trial, animals were brought in three stages. […] Glomerular filtration rate […]: creatinine (Cr-P), urea nitrogen (BUN) and cystatin (CysC) were detected, and the eGFR value was obtained by calculation. It was performed once before the administration and once every two weeks after the administration. […] ELISA kit was used for NT-proBNP test. [table] Selected […] in each group: 30 59 ml/min/1.73 m^2. The changes in the glomerular filtration rate of W8 and baseline were analyzed."}, "[2]": {"tested_on": "rhesus monkeys with spontaneous chronic kidney disease", "assay": "Effect on BUN, 8-week administration", "experimental": "(§1) In the trial, animals were brought in three stages. […] Glomerular filtration rate […]: creatinine (Cr-P), urea nitrogen (BUN) and cystatin (CysC) were detected, and the eGFR value was obtained by calculation. It was performed once before the administration and once every two weeks after the administration. […] ELISA kit was used for NT-proBNP test. [table]"}, "[3]": {"tested_on": "rhesus monkeys with spontaneous chronic kidney disease", "assay": "Effect on cystatin C (CysC), 8-week administration", "conditions": "1 mg/kg (n = 5)", "experimental": "as §1"}}, "note": "Several values for one entry are separate records, joined by “and”; a condition that tells them apart may be missing. Identical values can stand only once."}
{"smiles": "COC(=O)NCCCn1nc([C@@H](C)N(C(=O)[C@H]2CNCCO2)C2CC2)c2ccc(C)nc21.O=C(O)C[C@H](O)C(=O)O", "note": "[malate of compound of Formula I]", "values": [{"measurement": "eGFRcreat-cys", "setting": "[1]; 2 mg/kg qd (n = 5), Baseline, single animals and Mean ± SD", "value": "54 ml/min/1.73 m^2 and 50 ml/min/1.73 m^2 and 48 ml/min/1.73 m^2 and 46 ml/min/1.73 m^2 and 58 ml/min/1.73 m^2"}, {"measurement": "eGFRcreat-cys", "setting": "[1]; 2 mg/kg qd (n = 5), Baseline, single animals and Mean ± SD, group mean", "value": "51 ± 5", "unit": "ml/min/1.73 m^2"}, {"measurement": "eGFRcreat-cy, Change value", "setting": "[1]; 2 weeks vs baseline, per animal + Mean ± SD", "value": "4 ml/min/1.73 m^2 and 9 ml/min/1.73 m^2 and 11 ml/min/1.73 m^2 and −4 ml/min/1.73 m^2 and 1 ml/min/1.73 m^2 and 17 ml/min/1.73 m^2"}, {"measurement": "eGFRcreat-cy, Change value", "setting": "[1]; 2 weeks vs baseline, per animal + Mean ± SD, mean", "value": "5 ± 9", "unit": "ml/min/1.73 m^2"}, {"measurement": "eGFRcreat-cy, Change value", "setting": "[1]; 4 weeks vs baseline, per animal + Mean ± SD", "value": "−3 ml/min/1.73 m^2 and 4 ml/min/1.73 m^2 and 6 ml/min/1.73 m^2 and 2 ml/min/1.73 m^2 and 12 ml/min/1.73 m^2 and 11 ml/min/1.73 m^2"}, {"measurement": "eGFRcreat-cy, Change value", "setting": "[1]; 4 weeks vs baseline, per animal + Mean ± SD, mean", "value": "5 ± 6", "unit": "ml/min/1.73 m^2"}, {"measurement": "eGFRcreat-cy, Change value", "setting": "[1]; 6 weeks vs baseline, per animal + Mean ± SD", "value": "−1 ml/min/1.73 m^2 (2×) and 6 ml/min/1.73 m^2 and −2 ml/min/1.73 m^2 and 11 ml/min/1.73 m^2 (2×)"}, {"measurement": "eGFRcreat-cy, Change value", "setting": "[1]; 6 weeks vs baseline, per animal + Mean ± SD, mean", "value": "4 ± 6", "unit": "ml/min/1.73 m^2"}, {"measurement": "eGFRcreat-cy, Change value", "setting": "[1]; 8 weeks vs baseline, per animal + Mean ± SD (p<0.05 vs placebo)", "value": "6±6 ml/min/1.73 m^2 and 3 ml/min/1.73 m^2 and 6 ml/min/1.73 m^2 and 4 ml/min/1.73 m^2 and 2 ml/min/1.73 m^2 and 8 ml/min/1.73 m^2 and 17 ml/min/1.73 m^2"}, {"measurement": "eGFRcreat-cy, Change value", "setting": "[1]; Baseline, per animal + Mean ± SD", "value": 0, "unit": "ml/min/1.73 m^2"}, {"measurement": "eGFRcreat-cy, Change value", "setting": "[1]; Baseline, per animal + Mean ± SD, mean", "value": "0 ± 0", "unit": "ml/min/1.73 m^2"}, {"measurement": "eGFRcreat-cys", "setting": "[1]; 5 mg/kg qd (n = 6), 2 weeks", "value": "51 ml/min/1.73 m^2 and 57 ml/min/1.73 m^2 and 62 ml/min/1.73 m^2 and 37 ml/min/1.73 m^2 and 54 ml/min/1.73 m^2 and 61 ml/min/1.73 m^2"}, {"measurement": "eGFRcreat-cys", "setting": "[1]; 5 mg/kg qd (n = 6), 2 weeks, group mean", "value": "54 ± 9", "unit": "ml/min/1.73 m^2"}, {"measurement": "eGFRcreat-cys", "setting": "[1]; 5 mg/kg qd (n = 6), 6 weeks", "value": "53 ml/min/1.73 m^2 and 54 ml/min/1.73 m^2 and 49 ml/min/1.73 m^2 and 40 ml/min/1.73 m^2 and 64 ml/min/1.73 m^2"}, {"measurement": "eGFRcreat-cys", "setting": "[1]; 5 mg/kg qd (n = 6), 6 weeks, group mean", "value": "53 ± 8", "unit": "ml/min/1.73 m^2"}, {"measurement": "eGFRcreat-cys", "setting": "[1]; 5 mg/kg qd (n = 6), 8 weeks", "value": "57 ml/min/1.73 m^2 and 53 ml/min/1.73 m^2 and 55 ml/min/1.73 m^2 and 43 ml/min/1.73 m^2 and 61 ml/min/1.73 m^2 and 60 ml/min/1.73 m^2"}, {"measurement": "eGFRcreat-cys", "setting": "[1]; 5 mg/kg qd (n = 6), 8 weeks, group mean", "value": "55 ± 7", "unit": "ml/min/1.73 m^2"}, {"measurement": "eGFRcreat-cys", "setting": "[1]; 5 mg/kg qd (n = 6), Baseline, single animals and Mean ± SD", "value": "55 ml/min/1.73 m^2 and 48 ml/min/1.73 m^2 and 51 ml/min/1.73 m^2 and 41 ml/min/1.73 m^2 and 53 ml/min/1.73 m^2 and 43 ml/min/1.73 m^2"}, {"measurement": "eGFRcreat-cys", "setting": "[1]; 5 mg/kg qd (n = 6), Baseline, single animals and Mean ± SD, group mean", "value": "49 ± 5", "unit": "ml/min/1.73 m^2"}, {"measurement": "glomerular filtration rate eGFRcreat-cys improvement", "setting": "[1]; 2-5 mg/kg qd for 8 weeks", "value": "can be significantly improved"}, {"measurement": "BUN", "setting": "[2]; 1 mg/kg (n = 5), Baseline2, single animals and Mean ± SD", "value": "35.1 mg/dL and 32.4 mg/dL and 19.3 mg/dL and 39.8 mg/dL and 40.8 mg/dL"}, {"measurement": "BUN", "setting": "[2]; 1 mg/kg (n = 5), Baseline2, single animals and Mean ± SD, mean", "value": "33.5 ± 8.6", "unit": "mg/dL"}, {"measurement": "BUN", "setting": "[2]; 2 mg/kg (n = 5), 4 weeks", "value": "42.7 mg/dL and 37.1 mg/dL and 22.9 mg/dL and 41.6 mg/dL and 30.4 mg/dL"}, {"measurement": "BUN", "setting": "[2]; 2 mg/kg (n = 5), 4 weeks, mean", "value": "34.9 ± 8.3", "unit": "mg/dL"}, {"measurement": "BUN", "setting": "[2]; 2 mg/kg (n = 5), Baseline2, single animals and Mean ± SD", "value": "37.5 mg/dL and 24.2 mg/dL and 18.7 mg/dL and 42.1 mg/dL and 25.4 mg/dL"}, {"measurement": "BUN", "setting": "[2]; 2 mg/kg (n = 5), Baseline2, single animals and Mean ± SD, mean", "value": "29.6 ± 9.8", "unit": "mg/dL"}, {"measurement": "BUN", "setting": "[2]; 5 mg/kg (n = 6), Baseline2, single animals and Mean ± SD", "value": "18.6 mg/dL and 37.3 mg/dL and 41.3 mg/dL and 77.3 mg/dL and 18.1 mg/dL and 81.2 mg/dL"}, {"measurement": "BUN", "setting": "[2]; 5 mg/kg (n = 6), Baseline2, single animals and Mean ± SD, mean", "value": "45.6 ± 27.7", "unit": "mg/dL"}, {"measurement": "CysC", "setting": "[3]; 2 weeks", "value": "1.66 mg/L and 1.64 mg/L and 1.83 mg/L and 1.55 mg/L"}, {"measurement": "CysC", "setting": "[3]; 2 weeks, mean", "value": "1.70 ± 0.12", "unit": "mg/L"}, {"measurement": "CysC", "setting": "[3]; 4 weeks", "value": "1.49 mg/L and 1.43 mg/L and 1.57 mg/L and 1.76 mg/L and 1.50 mg/L"}, {"measurement": "CysC", "setting": "[3]; 4 weeks, mean", "value": "1.55 ± 0.13", "unit": "mg/L"}, {"measurement": "CysC", "setting": "[3]; 6 weeks", "value": "1.48 mg/L and 1.61 mg/L and 1.62 mg/L and 1.68 mg/L and 1.50 mg/L"}, {"measurement": "CysC", "setting": "[3]; 6 weeks, mean", "value": "1.58 ± 0.08", "unit": "mg/L"}, {"measurement": "CysC", "setting": "[3]; 8 weeks", "value": "1.51 mg/L and 1.59 mg/L and 1.62 mg/L and 1.77 mg/L"}]}
